For test [1], the target named is T1, SARS-CoV-2 PLpro (nsp3 1564–1878) (Severe acute respiratory syndrome coronavirus 2, UniProt P0DTD1). Kind of test: biochemical. Set-up: FRET-quenched peptide (Pro3) cleavage by PLpro, 10 min pre-incubation, slope over 20 min, normalised to no-compound control. Conditions: low concentration screen, read-out: % of control remaining.
In test [2] the target is T1, SARS-CoV-2 PLpro (nsp3 1564–1878). Kind of test: biochemical. Set-up: FRET-quenched peptide (Pro3) cleavage by PLpro, 10 min pre-incubation, slope over 20 min, normalised to no-compound control. Conditions: high concentration screen, read-out: % of control remaining.

Where a name gives a salt, the structure may show the parent alone. Read-outs that look alike come from different tables or passages of the source.

`CCN(CC)CCOc1ccc(C(=C(Cl)c2ccccc2)c2ccccc2)cc1` [Clomiphene]: the remaining activity at 1.25 µM in test [1] (Well no.=2273) is 96.5%. The remaining activity at 3.75 µM in test [2] (Well no.=2273) came to 96.3%.
As to `CN1C[C@H](CO)C=C2c3cccc4[nH]cc(c34)C[C@H]21` [Lysergol], in test [1] (Well no.=3382), the remaining activity at 1.25 µM is 96.8%. Further, in test [2] (Well no.=3382), the remaining activity at 3.75 µM is 93.3%.
As to `CC(O)CC(=O)O` (centres unmarked) [3-Hydroxybutyric acid], the remaining activity at 1.25 µM in test [1] (Well no.=7117) was 103%. Moreover, in test [2] (Well no.=7117), the remaining activity at 3.75 µM came out at 99%.
As for `CN(C)CCc1c[nH]c2ccc(C[C@H]3COC(=O)N3)cc12` [Zolmitriptan], the values for the remaining activity at 1.25 µM in test [1] (Well no.=1885) and in test [1] (Well no.=6507) were 98% and 98.3%, respectively. Also, the results for the remaining activity at 3.75 µM in test [2] (Well no.=1885) and in test [2] (Well no.=6507) were 97.6% and 98.2%, respectively.
As to `O=C(O)C=Cc1cc(Br)c(Br)c(Br)c1Br` [Casein Kinase II Inhibitor III, TBCA], the remaining activity at 1.25 µM in test [1] (Well no.=2374) was 102%. Also, the remaining activity at 3.75 µM in test [2] (Well no.=2374) worked out at 104%.
As for `CC1(C)C=Cc2c(ccc3c2OC[C@@H](c2ccc(O)cc2O)C3)O1` [4-[(3R)-8,8-dimethyl-3,4-dihydro-2H,8H-pyrano[2,3-f]chromen-3-yl]-1,3-benzenediol], the remaining activity at 1.25 µM in test [1] (Well no.=5793) was 100%. The remaining activity at 3.75 µM in test [2] (Well no.=5793) amounted to 104%.
In the case of `CCSC(N)=Nc1ccc(C(F)(F)F)cc1` [TFPI hydrochloride], in test [1] (Well no.=1389), the remaining activity at 1.25 µM was 95.8%. Further, the remaining activity at 3.75 µM in test [2] (Well no.=1389) stood at 93.8%.
Take `COc1ccc(C2(O)OC(=O)C(c3ccc4c(c3)OCO4)=C2Cc2cc(OC)c(OC)c(OC)c2)cc1` (centres unmarked) [PD-156707]: the remaining activity at 1.25 µM in test [1] (Well no.=5693) turned out to be 101%. Also, in test [2] (Well no.=5693), the remaining activity at 3.75 µM was 104%.
For `CCCCCCCCCCCCCCCC(=O)OC(CC(=O)O)C[N+](C)(C)C` (racemic) [Palmitoyl-DL-Carnitine chloride], the remaining activity at 1.25 µM in test [1] (Well no.=1098) is 86.5%. The remaining activity at 3.75 µM in test [2] (Well no.=1098) was 85.4%.
On to `O=C(O[C@@H]1Cc2c(O)cc(O)cc2O[C@@H]1c1cc(O)c(O)c(O)c1)c1cc(O)c(O)c(O)c1` [Epigallocatechin gallate], for which the remaining activity at 1.25 µM in test [1] (Well no.=3895) stood at 98.4%. The remaining activity at 3.75 µM in test [2] (Well no.=3895) came to 101%.
For the compound `COc1cc(O)c(CC=C(C)C)c(O)c1C(=O)/C=C/c1ccc(O)cc1` [Xanthohumol], the remaining activity at 1.25 µM in test [1] (Well no.=8578) is 106%. In addition, the remaining activity at 3.75 µM in test [2] (Well no.=8578) was 102%.
`O=c1[nH]c(=O)n([C@H]2C[C@H](O)[C@@H](CO)O2)cc1I` [Idoxuridine]: the remaining activity at 1.25 µM in test [1] (Well no.=2218) amounted to 98.6%; in test [1] (Well no.=8851), 105%. In addition, the remaining activity at 3.75 µM in test [2] (Well no.=2218) came out at 102%; in test [2] (Well no.=8851) it was 107%.
On to `CN1CCc2c(c3ccccc3n2Cc2ccc(C(=O)NO)cc2)C1` [Tubastatin A HCl], for which, in test [1] (Well no.=4962), the remaining activity at 1.25 µM came out at 90.5%. In addition, the remaining activity at 3.75 µM in test [2] (Well no.=4962) was 88.7%.
Consider `C[C@@H]1CC(=O)NN=C1c1ccc(NN=C(C#N)C#N)cc1` [Levosimendan], for which the remaining activity at 1.25 µM in test [1] (Well no.=4902) was 101%. Besides, in test [2] (Well no.=4902), the remaining activity at 3.75 µM was 97.8%.
With `CCCC/C=C\CCCCCCCC(=O)O` [9(Z)-Tetradecenoic acid], in test [1] (Well no.=4268), the remaining activity at 1.25 µM was found to be 102%. Further, in test [2] (Well no.=4268), the remaining activity at 3.75 µM amounted to 98%.
As to `CCOC(=O)C1=C(COCCN)NC(C)=C(C(=O)OC)C1c1ccccc1Cl` (centres unmarked) [Amlodipine], the remaining activity at 1.25 µM in test [1] (Well no.=1711) stood at 99.1%. The remaining activity at 3.75 µM in test [2] (Well no.=1711) came to 99%.
With `NC(=S)c1ccc[n+]([C@@H]2O[C@H](COP(=O)([O-])OP(=O)(O)OC[C@H]3O[C@@H](n4cnc5c(N)ncnc54)[C@H](OP(=O)(O)O)[C@@H]3O)[C@@H](O)[C@H]2O)c1` [Thio-NADP sodium], the remaining activity at 1.25 µM in test [1] (Well no.=1481) was 98%. In addition, the remaining activity at 3.75 µM in test [2] (Well no.=1481) stood at 93.5%.
As for `C[C@H]1CN(C[C@H](Cc2ccccc2)C(=O)NCC(=O)O)CC[C@@]1(C)c1cccc(O)c1` [Alvimopan], the remaining activity at 1.25 µM in test [1] (Well no.=6051) amounted to 95.7%. For the same compound, the remaining activity at 3.75 µM in test [2] (Well no.=6051) turned out to be 96.9%.
As for `CCCCC[C@H](O)/C=C/[C@@H]1[C@@H](C/C=C\CCCC(=O)O)[C@@H](O)C[C@H]1O` [Dinoprost], in test [1] (Well no.=1667), the remaining activity at 1.25 µM worked out at 99.9%. In test [2] (Well no.=1667), the remaining activity at 3.75 µM amounted to 101%.
As to `O=C(Nc1c(Cl)cncc1Cl)c1ccc(OC(F)F)c(OCC2CC2)c1` [Roflumilast], the remaining activity at 1.25 µM in test [1] (Well no.=5877) worked out at 94.1%. In addition, in test [2] (Well no.=5877), the remaining activity at 3.75 µM came to 94.8%.
Regarding `CCN[C@@H]1C[C@H](N)[C@@H](O[C@H]2OC(CN)=CC[C@H]2N)[C@H](O)[C@H]1O[C@H]1OC[C@](C)(O)[C@H](NC)[C@H]1O` [Netilmicin Sulfate], the remaining activity at 1.25 µM in test [1] (Well no.=4696) worked out at 102%. Also, the remaining activity at 3.75 µM in test [2] (Well no.=4696) was found to be 101%.
Regarding `O=C1Nc2ccccc2C2(CCN(CCc3ccc(C(F)(F)F)cc3)CC2)O1` [RS102895 (hydrochloride)], the values for the remaining activity at 1.25 µM in test [1] (Well no.=8003) and in test [1] (Well no.=8275) were 98.5% and 106%, respectively. Also, the remaining activity at 3.75 µM was 93.3% in test [2] (Well no.=8003) and 104% in test [2] (Well no.=8275).
For `O=C(O)C(Cl)Cl` [Sodium dichloroacetate (DCA)], in test [1] (Well no.=8490), the remaining activity at 1.25 µM was determined as 96.6%. Besides, the remaining activity at 3.75 µM in test [2] (Well no.=8490) is 96.1%.
As for `Cc1cccc(C#Cc2ccccc2)n1` [6-Methyl-2-(phenylethynyl)pyridine hydrochloride], the remaining activity at 1.25 µM in test [1] (Well no.=834) was found to be 98.2%. Besides, the remaining activity at 3.75 µM in test [2] (Well no.=834) is 95%.
For the compound `COc1cc2ncnc(Nc3ccc(F)c(Cl)c3)c2cc1OCCCN1CCOCC1` [Gefitinib], the remaining activity at 1.25 µM in test [1] (Well no.=1579) stood at 102%; in test [1] (Well no.=2743) it was 101%. The results for the remaining activity at 3.75 µM in test [2] (Well no.=1579) and in test [2] (Well no.=2743) were 102% and 101%, respectively.
With `CCC(C)n1ncn(-c2ccc(N3CCN(c4ccc(OC[C@H]5CO[C@](Cn6cncn6)(c6ccc(Cl)cc6Cl)O5)cc4)CC3)cc2)c1=O` (mixture of isomers) [Itraconazole], the remaining activity at 1.25 µM in test [1] (Well no.=2228) came to 96.3%. Further, in test [2] (Well no.=2228), the remaining activity at 3.75 µM was 94.2%.
For the compound `Clc1cccc(CN=C2Nc3ccccc3NC23CCNCC3)c1` [Liproxstatin-1], the remaining activity at 1.25 µM came out at 98.7% in test [1] (Well no.=5945) and 94.5% in test [1] (Well no.=6402). Further, the remaining activity at 3.75 µM came to 97.6% in test [2] (Well no.=5945) and 93.9% in test [2] (Well no.=6402).
On to `NC(=O)c1ccccc1C(=O)N[C@@H](CCC(=O)O)C(=O)O` [Phthalamoyl-L-glutamic acid trisodium], for which the remaining activity at 1.25 µM in test [1] (Well no.=1409) came to 99.3%. The remaining activity at 3.75 µM in test [2] (Well no.=1409) worked out at 101%.
Take `C/C(=N\NC(=S)N1CCC1)c1ccccn1` [NSC319726]: the remaining activity at 1.25 µM in test [1] (Well no.=6736) was determined as 102%. Moreover, in test [2] (Well no.=6736), the remaining activity at 3.75 µM was found to be 102%.

Values taken from PMC8286840, “Identifying SARS-CoV-2 antiviral compounds by screening for small molecule inhibitors of Nsp3 papain-like protease” (Biochemical Journal, 2021).
